# Results: PMC12657321, “Pre-clinical evaluation of a potent and effective Pin1-degrading agent in pancreatic cancer” (Molecular Therapy Oncology, 2025)
# Non-standard residues stand in square brackets, D forms with d. Residues, ends and D or L forms follow the SMILES beside them. *: point of attachment. Trp(6-Cl) = N[C@@H](Cc1c[nH]c2cc(Cl)ccc12)C(=O)O; Pip = O=C(O)[C@@H]1CCCCN1; ClAc = O=C(CCl)*
# What was measured:
# Human plasma stability = format: in vitro ADME; conditions: 37°C, up to 6 h, acetonitrile quench, LC-MS/MS
# Protocol: (§1) A solution of a Pin1 inhibitor was spiked into blank plasma at 1 μg/mL in various solutions, including an aqueous buffer (1× phosphate-buffered saline; Fisher Scientific, Fair Lawn, NJ), human plasma (Innovative Research Inc., Novi, MI), wild-type mouse plasma (Innovative Research Inc., Novi, MI), plasma form esterase-deficient mice (City of Hope, Duarte, CA), and plasma from Black 6-Cg mice (City of Hope, Duarte, CA).
# (§2) The spiked plasma samples were incubated at 37°C for up to 6 h. At each designated time point, a 20 μL aliquot of the incubation sample was removed and quenched in 100 μL of acetonitrile. At the end of the incubation, the quenched samples were vortexed and centrifuged for 10 min at 4°C and 20,000 × g. The resulting supernatant was reconstituted and analyzed by LC-MS/MS.
# (§3) Table S2. Stability half-life of agents reported in Table 1 after incubation at 37 °C in various media. Acq represents aqueous buffer composed of 1x phosphate buffered saline (Fisher Scientific, Fair Lawn, NJ); human represents human plasma (Innovative Research Inc., Novi, MI); mouse wt represents wild type mouse plasma (Innovative Research Inc., Novi, MI); mouse ES1e represents plasma form esterase deficient mice (City of Hope, Duarte, CA); mouse B6-Cg represents plasma from black 6-Cg mice (City of Hope, Duarte, CA). See Figure 1 for the chemical structures of these compounds.
# (§4) Compound Acq Human Mouse Mouse ES1e Mouse
# CD-1 mice = format: in vivo, mouse
# Protocol: The effect of Pin1 degradation by 164B8 on cell viability was assessed using live-cell analysis (IncuCyte S3). […] Furthermore, to evaluate the acute single-dose toxicity of 164B8 in vivo, CD-1 immune-competent mice were exposed to increasing doses of 164B8. […] Therefore, a maximum tolerated dose was not reached (Figure S12).
# Figure S12: A) Acute toxicity study at 100mg/kg. In this preliminary safety study, 3 CD -1 mice were treated with a single dose of 100 mg/kg of 164B8. The injections were administered intraperitoneally (ip), and the body weight of the mice was measured for several days after the injection. B) Body weight control during the in -vivo efficacy study. The body weights of the mice in the three groups were measured on the day of treatment (day 0) and 7 and 14 days after.
# (1 picture or pasted object on this page, not shown here)
# human Pin1 = molecular target: T1, human Pin1 (Homo sapiens, UniProt Q13526); assay: Denaturation thermal shift measurements (SYPRO Orange); format: binding; conditions: thermal denaturation shift of Pin1, 20 μM protein, protein:ligand 1:2, 50 mM phosphate pH 7.5, 150 mM NaCl, 3% DMSO, 10-95°C, quadruplicates
# T1 construct: Residues 1–163 of human Pin1 were expressed with a thrombin cleavage site and a HisTag at the N-terminus; 6xHis (N); thrombin cleavage site (N); made in house; host or cells: E. coli
# Protocol: To assess the ability of our agents to bind and inhibit Pin1, we developed a robust biochemical assay based on the dissociation-enhanced lanthanide fluorescent immunoassay (DELFIA) platform. In our implementation, we used a biotinylated form of a known Pin1-binding peptide (D-peptide) to monitor the ability of test agents to inhibit the interaction between Pin1 and the D-peptide at various incubation times, as described previously.[32] […] In addition, as mentioned above and reported recently, we tested the ability of the agents to reduce Pin1 thermal stability in vitro by thermal denaturation measurements.[32] […] Pin1 unfolding causes a nonspecific interaction between the water-quenched fluorescent dye and the protein’s exposed hydrophobic residues, resulting in increased fluorescence. A shift in the thermal denaturation temperature between the free and bound protein is interpreted as a stabilization or destabilization event induced by the test ligand. […] To further assess whether these agents could be suitable for in vivo efficacy studies, we also performed stability assays in aqueous buffer and in plasma from various species (Table S2, Figure S2). We tested the stability of our agents in plasma from multiple mouse strains as well as in human plasma (Figure S2), given the peptide nature of the compounds. […]
# [1] = Stability in plasma from esterase-deficient (ES1e) mice; format: in vitro ADME; conditions: mouse, 37°C, up to 6 h, acetonitrile quench, LC-MS/MS
# Protocol: as §1, §2, §3, §4
# T1 sequence (Q13526 whole entry, the tested form may be a part): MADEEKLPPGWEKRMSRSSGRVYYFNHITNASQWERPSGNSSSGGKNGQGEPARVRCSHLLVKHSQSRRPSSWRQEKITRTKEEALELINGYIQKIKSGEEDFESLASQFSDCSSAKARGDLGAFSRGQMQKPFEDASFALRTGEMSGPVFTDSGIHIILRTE
structure (smiles),measurement,setting,value
CNC(=O)[C@H](Cc1c[nH]c2ccccc12)NC(=O)[C@@H]1CCCCN1C(=O)[C@H](Cc1c[nH]c2cc(Cl)ccc12)NC(=O)CCl [164B8] (ClAc-[Trp(6-Cl)]-[Pip]-Trp-NHMe),half-life at 1 μg/mL,Human plasma stability,~4.5 h
same,Acute single-dose toxicity,"CD-1 mice; 100 mg/kg single dose intraperitoneally (highest soluble dose), monitored over 2 weeks, 3 mice",did not produce any observable signs of acute toxicity
same,Maximum tolerated dose,CD-1 mice; single intraperitoneal dose up to 100 mg/kg,not reached
same,ΔTm (°C),human Pin1,−9.55 ± 0.19 °C
same,half-life at 1 μg/mL,[1],> 5 h
